Data on six molecules can be found in patent US20200061062A1, “INHIBITORS OF HUMAN PHOSPHATIDYLINOSITOL 3-KINASE DELTA” (ICOS Corporation, priority 2000, published 2020).

“And” between values parts separate entries of the source, which are not always exact repeats. Identical values can stand only once. Like-named read-outs stand apart in the source and are kept apart here.

Usually remaining activity stands for the share of the control activity or signal that is left under treatment. As usually defined, the melting point is the temperature of the solid-liquid transition. Usually inhibition stands for how much of the control response was suppressed. A high value points to strong suppression.

Data set [1] has as its target T1, PI3Kα (Homo sapiens, UniProt P42336).
T1 construct: His tag (pFastbac HTb vector) (N); FLAG; made in house; host or cells: Sf21 insect cells (baculovirus)
Nature of the data set: Biochemical assay of PI3K potency and selectivity using 20 μM ATP, Alpha. As to conditions: for Alpha/Delta Ratio: ratio of IC50 values, > = hypothetical ratio with 100 μM substituted for the missing IC50; for remaining activity at 100 µM: read-out: percent activity remaining at 100 μM, 20 μM ATP, 100 μM compound did not inhibit by at least 50%. Summed up: (§1)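 Radioactive phosphate transfer from γ-[32P]ATP onto PIP2/PS liposomes was measured in 20 mM HEPES, pH 7.4, at 20 μM ATP. The 3× substrate stock contained […] and 6 μM PIP2/PS.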

Data set [2] has as its system human neutrophils. Nature of the data set: fMLP-induced human neutrophil migration. The data set is classed as cell-based. As to conditions: neutrophil (PMN) migration, read-out: Human PMN Migration (EC50). On the procedure: Neutrophils have the intrinsic capacity to migrate through tissues, and are one of the first cell types to arrive at the sites of inflammation or tissue injury. The effect of D-000 on neutrophil migration towards a concentration gradient of fMLP was measured. The day before the migration assays were performed, 6-well plates were coated with recombinant ICAM-1/Fc fusion protein (Van der Vieren et al., Immunity, 3:683-690 (1995)) (25 μg/mL in bicarbonate buffer, pH 9.3) and left overnight at 4° C. After washing, 1% agarose solution, in RPMI-1640 with 0.5% bovine serum albumin (BSA), was added to wells with or without an inhibitor, and plates were placed into a refrigerator before punching holes in the gelled agarose to create plaques (1 central hole surrounded by 6 peripheral ones per well).
Human neutrophils were obtained as described above, and resuspended in RPMI medium supplemented with 0.5% BSA at 5×10^6 cells/mL. After combining equal volumes of neutrophil suspension and medium (either with DMSO or a serial dilution of the test compound in DMSO), neutrophils were aliquoted into the peripheral holes, while the central hole received fMLP (5 μM). Plates were incubated at 37° C. in the presence of 5% CO2 for 4 hr, followed by termination of migration by the addition of 1% glutaraldehyde solution in D-PBS. After removing the agarose layer, wells were washed with distilled water and dried.
Analysis of neutrophil migration was conducted on a Nikon DIAPHOT® inverted microscope (1× objective) video workstation using the NIH 1.61 program. Using Microsoft Excel and Table Curve 4 (SSPS Inc., Chicago Ill.) programs, a migration index was obtained for each of the studied conditions. Migration index was defined as the area under a curve representing number of migrated neutrophils versus the net distance of migration per cell.
Using the methods described in Examples 3-5, above, compounds of the invention were tested for inhibitory activity and potency in assays of stimulated B and T cell proliferation, neutrophil (PMN) migration, and neutrophil (PMN) elastase release. In Table 4, the values shown are effective concentrations of the compound (EC50; μM). Where no value is given, no assay was performed.

Data set [3] concerns the target T2, PI3Kγ (Homo sapiens, UniProt P48736).
T2 construct: His tag (pFastbac HTb vector) (N); FLAG (N); made in house; host or cells: Sf21 insect cells (baculovirus)
Kind of data set: Biochemical assay using 200 μM ATP, Gamma.
Experimental: (§2) PI3Kδ catalyzes a phosphotransfer from γ-[^32P]ATP to PIP2/PS liposomes at the D3′ position of the PIP2 lipid inositol ring. This reaction is MgCl2 dependent and is quenched in high molarity potassium phosphate buffer pH 8.0 containing 30 mM EDTA. […] The reaction products (and all unlabelled products) are transferred to a 96-well, prewetted PVDF filter plate, filtered, and washed in high molarity potassium phosphate. Scintillant is added to the dried wells and the incorporated radioactivity is quantitated.
(§3) This dilution established a final concentration of 200 μM ATP in the reaction volume. The reaction was stopped with 150 μL quench buffer (1.0 M potassium phosphate pH 8.0, 30 mM EDTA). A portion of the quenched solution (180 μL) was then transferred to a PVDF filter plate (Millipore # MAIP NOB prewetted with sequential 200 μL washes of 100% methanol, water, and finally 1.0 M potassium phosphate pH 8.0 wash buffer).
(§4) The PVDF filter plate was aspirated under moderate vacuum (2-5 mm Hg), washed with 5×200 μL of wash buffer, and then dried by aspiration. The filter was subsequently blotted, allowed to air dry completely, and inserted into a Wallac counting cassette with 50 μL of Ecoscint scintillation cocktail added per well.
(§5) Subsequent selectivity assays were done similarly using the same 3× substrate stocks except they contained 0.05 mCi/mL γ[^32P]ATP and 3 mM PIP2. Subsequent selectivity assays also used the same 3× enzyme stocks, except they now contained 3 nM of any given PI3K isoform.
(§6) For all selectivity assays, the test compounds were weighed out and dissolved into 10-50 mM stocks in 100% DMSO (depending on their respective solubilities) and stored at −20° C. […] From these dilutions, 20 μL was added into the assay wells alongside water blanks used for the enzyme (positive) control and the no enzyme (background) control.
(§7) This selectivity protocol is identical to that described above, except the 3× stock ATP concentration was 600 μM.

For data set [4], the system named is human neutrophils. Kind of data set: Elastase exocytosis from neutrophils (fMLP-induced). The data set is classed as cell-based. To be noted: neutrophil (PMN) elastase release. Put shortly:
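Human blood neutrophils (Ficoll-Hypaque) treated with compound or DMSO, then stimulated 90 min at 37 °C with 1 μM fMLP plus 0.01 mg/mL cytochalasin B, 1.0 μM NaN3 and 5 μg/mL L-methionine. Supernatant elastase read at 410 nm over 2 h on MeO-suc-AAPV-pNA, normalized to uninhibited; EC50 in μM.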

Data set [5] deals with T3, PI3Kβ (Homo sapiens, UniProt P42338).
T3 construct: His tag (pFastbac HTa vector) (N); FLAG (N); made in house; host or cells: Sf21 insect cells (baculovirus)
T3 sequence (P42338 whole entry): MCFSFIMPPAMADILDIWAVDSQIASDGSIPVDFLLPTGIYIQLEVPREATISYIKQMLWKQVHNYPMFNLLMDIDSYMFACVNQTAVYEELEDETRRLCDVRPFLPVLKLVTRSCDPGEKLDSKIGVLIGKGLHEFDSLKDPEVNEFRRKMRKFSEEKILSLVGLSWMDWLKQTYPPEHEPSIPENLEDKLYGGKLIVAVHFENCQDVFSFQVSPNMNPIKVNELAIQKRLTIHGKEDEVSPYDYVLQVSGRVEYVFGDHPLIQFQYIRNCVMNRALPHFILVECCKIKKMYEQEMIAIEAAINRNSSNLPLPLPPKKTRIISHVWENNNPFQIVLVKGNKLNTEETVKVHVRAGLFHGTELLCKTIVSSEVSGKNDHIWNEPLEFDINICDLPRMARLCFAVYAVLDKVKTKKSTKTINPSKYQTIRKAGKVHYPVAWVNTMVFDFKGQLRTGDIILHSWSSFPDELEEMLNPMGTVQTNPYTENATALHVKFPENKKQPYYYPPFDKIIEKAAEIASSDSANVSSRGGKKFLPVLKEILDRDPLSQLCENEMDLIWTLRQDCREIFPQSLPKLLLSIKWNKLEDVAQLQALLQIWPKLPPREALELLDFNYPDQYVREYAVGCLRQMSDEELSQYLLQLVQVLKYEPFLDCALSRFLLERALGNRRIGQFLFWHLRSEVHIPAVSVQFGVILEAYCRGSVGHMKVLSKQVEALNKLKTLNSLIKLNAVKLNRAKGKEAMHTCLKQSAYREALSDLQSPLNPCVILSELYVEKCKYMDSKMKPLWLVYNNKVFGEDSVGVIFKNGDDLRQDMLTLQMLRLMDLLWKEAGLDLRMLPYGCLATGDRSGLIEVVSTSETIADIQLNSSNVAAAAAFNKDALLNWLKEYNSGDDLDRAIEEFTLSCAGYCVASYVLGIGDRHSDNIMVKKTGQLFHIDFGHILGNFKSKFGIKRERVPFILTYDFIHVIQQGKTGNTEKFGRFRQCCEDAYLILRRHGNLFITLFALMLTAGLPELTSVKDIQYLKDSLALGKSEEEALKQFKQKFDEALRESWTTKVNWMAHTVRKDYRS
T3 sequence (P27986 whole entry partner): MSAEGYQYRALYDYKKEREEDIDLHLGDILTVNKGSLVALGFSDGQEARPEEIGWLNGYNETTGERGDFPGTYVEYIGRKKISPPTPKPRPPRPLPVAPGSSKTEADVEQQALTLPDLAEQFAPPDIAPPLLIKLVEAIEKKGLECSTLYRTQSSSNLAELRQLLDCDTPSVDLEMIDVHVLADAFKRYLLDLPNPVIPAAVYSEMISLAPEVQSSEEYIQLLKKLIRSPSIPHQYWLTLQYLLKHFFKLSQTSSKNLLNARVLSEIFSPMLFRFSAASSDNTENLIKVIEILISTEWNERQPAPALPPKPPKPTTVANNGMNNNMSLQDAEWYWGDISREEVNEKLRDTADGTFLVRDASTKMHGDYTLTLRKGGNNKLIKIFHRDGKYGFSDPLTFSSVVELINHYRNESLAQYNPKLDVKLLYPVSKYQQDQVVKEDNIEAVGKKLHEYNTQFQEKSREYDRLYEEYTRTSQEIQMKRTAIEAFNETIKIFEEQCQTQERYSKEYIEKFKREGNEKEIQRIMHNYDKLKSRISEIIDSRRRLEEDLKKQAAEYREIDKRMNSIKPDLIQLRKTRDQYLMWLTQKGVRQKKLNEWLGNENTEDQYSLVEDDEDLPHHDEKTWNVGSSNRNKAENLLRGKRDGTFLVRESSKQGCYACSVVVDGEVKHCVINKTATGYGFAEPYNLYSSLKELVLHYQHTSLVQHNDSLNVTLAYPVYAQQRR
Nature of the data set: Biochemical assay of PI3K potency and selectivity using 20 μM ATP, Beta. As to conditions: 20 μM ATP; for Beta/Delta Ratio: ratio of IC50 values, > = hypothetical ratio with 100 μM substituted for the missing IC50; for IC50: read-out: Beta IC50. Put shortly: as §1

In data set [6] the target is T3, PI3Kβ. Nature of the data set: Biochemical assay using 200 μM ATP, Beta.
Data set [7] relates to T cell proliferation. Nature of the data set: Stimulated T cell proliferation (Mouse TCE Stim, Table 4). Type of data set: cell-based. As to conditions: read-out: Mouse TCE Stim (EC50).
Data set [8] deals with T4, PI3Kδ (Homo sapiens, UniProt O00329, S253N). Nature of the data set: Biochemical assay using 200 μM ATP, Delta.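 Also: radiometric filter-binding assay: PI3Kδ transfers ³²P from γ-[³²P]ATP onto PIP2/PS liposomes, counted by scintillation, enzyme-only wells as positive control, no-enzyme wells as background.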
T4 sequence (O00329 whole entry S253N): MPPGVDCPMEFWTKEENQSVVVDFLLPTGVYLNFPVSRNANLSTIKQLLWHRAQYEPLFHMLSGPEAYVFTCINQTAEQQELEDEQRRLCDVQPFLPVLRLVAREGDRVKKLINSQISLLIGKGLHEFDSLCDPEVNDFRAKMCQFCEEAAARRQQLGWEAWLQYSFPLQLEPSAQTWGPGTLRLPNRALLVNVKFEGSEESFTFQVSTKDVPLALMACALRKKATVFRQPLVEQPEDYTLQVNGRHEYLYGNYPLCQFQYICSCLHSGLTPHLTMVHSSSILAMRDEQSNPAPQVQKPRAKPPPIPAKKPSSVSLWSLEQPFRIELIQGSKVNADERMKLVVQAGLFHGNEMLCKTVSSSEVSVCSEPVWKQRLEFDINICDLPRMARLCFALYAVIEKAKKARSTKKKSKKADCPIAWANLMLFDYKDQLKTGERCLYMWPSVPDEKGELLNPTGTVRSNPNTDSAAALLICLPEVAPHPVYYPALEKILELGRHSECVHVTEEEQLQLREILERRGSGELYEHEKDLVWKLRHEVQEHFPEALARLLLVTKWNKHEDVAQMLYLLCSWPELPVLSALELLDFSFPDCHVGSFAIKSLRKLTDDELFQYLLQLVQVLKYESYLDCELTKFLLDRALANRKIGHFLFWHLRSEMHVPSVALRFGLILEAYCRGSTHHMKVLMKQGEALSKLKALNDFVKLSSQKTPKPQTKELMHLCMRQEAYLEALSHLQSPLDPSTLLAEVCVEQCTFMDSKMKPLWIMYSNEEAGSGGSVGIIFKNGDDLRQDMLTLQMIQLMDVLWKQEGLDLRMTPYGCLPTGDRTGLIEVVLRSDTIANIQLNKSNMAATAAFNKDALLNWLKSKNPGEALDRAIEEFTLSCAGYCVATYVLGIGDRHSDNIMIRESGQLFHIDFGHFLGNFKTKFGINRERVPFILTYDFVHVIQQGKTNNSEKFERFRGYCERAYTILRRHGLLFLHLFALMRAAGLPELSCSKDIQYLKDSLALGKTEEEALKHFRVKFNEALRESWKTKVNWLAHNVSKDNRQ
T4 sequence (P27986 whole entry partner): as the sequence (P27986 whole entry partner) above
Experimental: as §2, §3, §4, §5, §6, §7
Data set [9] has as its system Murine splenocytes (Balb/c). Nature of the data set: B cell proliferation in response to cell surface IgM stimulation. To be noted: Mus musculus, Splenocyte; stimulated B cell proliferation; read-out: Mouse BCR Stim (EC50). Type of data set: cell-based. Put shortly: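 Balb/c splenocytes (2×10^5/well, 10% FBS/RPMI) preincubated 30-60 min with inhibitor, then stimulated with goat F(ab′)2 anti-mouse IgM μ-chain at 25 μg/mL final. Cultured 3 days at 37° C., [^3H]-thymidine pulsed for final 4 h; incorporation counted as CPM. Values are EC50 (μM).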

Data set [10] concerns the target T1, PI3Kα. Kind of data set: Biochemical assay using 200 μM ATP, Alpha.
Experimental: as §2, §3, §4, §5, §6, §7
Data set [11] deals with T4, PI3Kδ. Nature of the data set: Biochemical assay of PI3K potency and selectivity using 20 μM ATP, Delta. Also on record: His tag (pFastbac HTb vector) (N); FLAG; made in house; host or cells: Sf21 insect cells (baculovirus). Put shortly: as §1
In data set [12] the test system is basophils. Nature of the data set: Basophil histamine release assay. Type of data set: cell-based, human. On the procedure:
Assessment of the effect of a compound of the invention on basophil function was tested using a conventional histamine release assay, generally in accordance with the method described in Miura et al., J Immunol, 162:4198-206 (1999). Briefly, enriched basophils were preincubated with test compounds at several concentrations from 0.1 nM to 1,000 nM, for 10 min at 37° C. Then, polyclonal goat antihuman IgE (0.1 μg/mL) or fMLP was added, and allowed to incubate for an additional 30 min. Histamine released into the supernatant was measured using an automated fluorometric technique. Two compounds were tested, shown below.

The target of data set [13] is T2, PI3Kγ. Nature of the data set: Biochemical assay of PI3K potency and selectivity using 20 μM ATP, Gamma.
In data set [14] the test system is osteoclasts. Kind of data set: Osteoclast function, pit depths on dentine slices. The data set is classed as cell-based, mouse. To be noted: inhibitor 100 nM + osteopontin (OPN) 25 μg/mL, 72 hr; two experiments; OPN alone 10 ± 0.5 and 9 ± 0.4. On the procedure: To analyze the effect of the PI3Kδ inhibitor D-000 on osteoclasts, mouse bone marrow cells were isolated and differentiated them to osteoclasts by treating the cells with Macrophage Colony Stimulating Factor^−1 (mCSF^−1) and Osteoprotegerin Ligand (OPGL) in serum-containing medium (αMEM with 10% heat-inactivated FBS; Sigma) for 3 days. On day four, when the osteoclasts had developed, the medium was removed and cells were harvested. The osteoclasts were plated on dentine slices at 10^5 cells/well in growth medium, i.e., αMEM containing 1% serum and 2% BSA with […] and 10 ng/mL mCSF-1. After 3 hr, the medium was changed to 1% serum and 1% BSA, with or without osteopontin (25 μg/mL) and the PI3K inhibitors (100 nM). The medium was changed every 24 hours with fresh osteopontin and the inhibitors. At 72 hr, the medium was removed, and the dentine surfaces were washed with water to remove cell debris and stained with acid hematoxylin. Excess stain was washed and the pit depths were quantitated using confocal microscopy.

[15] abbreviates: stimulated T cell proliferation.
Setting [16] is: 20 μM ATP, read-out: Delta IC50.

T2 sequence (P48736 whole entry): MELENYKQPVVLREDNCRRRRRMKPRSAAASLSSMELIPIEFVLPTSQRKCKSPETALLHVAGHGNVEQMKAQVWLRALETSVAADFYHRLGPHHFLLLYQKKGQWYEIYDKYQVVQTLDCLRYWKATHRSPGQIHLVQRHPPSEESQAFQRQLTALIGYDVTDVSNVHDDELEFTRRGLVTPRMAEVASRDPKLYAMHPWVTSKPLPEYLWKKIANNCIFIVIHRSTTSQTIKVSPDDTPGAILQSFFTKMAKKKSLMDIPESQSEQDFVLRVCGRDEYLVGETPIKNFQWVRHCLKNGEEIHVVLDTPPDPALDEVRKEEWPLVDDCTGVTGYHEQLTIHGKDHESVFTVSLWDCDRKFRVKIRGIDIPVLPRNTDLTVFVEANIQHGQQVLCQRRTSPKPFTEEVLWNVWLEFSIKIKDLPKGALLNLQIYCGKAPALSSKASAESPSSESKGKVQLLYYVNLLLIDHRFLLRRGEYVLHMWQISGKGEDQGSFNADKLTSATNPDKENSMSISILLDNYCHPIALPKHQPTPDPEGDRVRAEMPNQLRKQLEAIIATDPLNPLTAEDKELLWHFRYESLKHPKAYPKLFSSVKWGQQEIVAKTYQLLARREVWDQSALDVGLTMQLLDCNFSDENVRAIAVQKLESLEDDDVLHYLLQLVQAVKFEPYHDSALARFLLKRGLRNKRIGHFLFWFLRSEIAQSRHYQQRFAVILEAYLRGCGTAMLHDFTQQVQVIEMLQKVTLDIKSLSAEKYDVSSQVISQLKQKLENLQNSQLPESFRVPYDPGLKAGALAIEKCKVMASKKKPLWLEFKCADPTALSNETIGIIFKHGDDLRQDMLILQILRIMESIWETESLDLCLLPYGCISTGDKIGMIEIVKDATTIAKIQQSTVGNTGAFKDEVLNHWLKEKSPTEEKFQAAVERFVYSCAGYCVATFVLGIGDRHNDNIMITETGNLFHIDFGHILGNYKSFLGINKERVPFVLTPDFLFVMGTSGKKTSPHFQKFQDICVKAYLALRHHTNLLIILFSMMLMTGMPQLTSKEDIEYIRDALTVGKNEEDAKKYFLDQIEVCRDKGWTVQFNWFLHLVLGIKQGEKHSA
T1 sequence (P42336 whole entry): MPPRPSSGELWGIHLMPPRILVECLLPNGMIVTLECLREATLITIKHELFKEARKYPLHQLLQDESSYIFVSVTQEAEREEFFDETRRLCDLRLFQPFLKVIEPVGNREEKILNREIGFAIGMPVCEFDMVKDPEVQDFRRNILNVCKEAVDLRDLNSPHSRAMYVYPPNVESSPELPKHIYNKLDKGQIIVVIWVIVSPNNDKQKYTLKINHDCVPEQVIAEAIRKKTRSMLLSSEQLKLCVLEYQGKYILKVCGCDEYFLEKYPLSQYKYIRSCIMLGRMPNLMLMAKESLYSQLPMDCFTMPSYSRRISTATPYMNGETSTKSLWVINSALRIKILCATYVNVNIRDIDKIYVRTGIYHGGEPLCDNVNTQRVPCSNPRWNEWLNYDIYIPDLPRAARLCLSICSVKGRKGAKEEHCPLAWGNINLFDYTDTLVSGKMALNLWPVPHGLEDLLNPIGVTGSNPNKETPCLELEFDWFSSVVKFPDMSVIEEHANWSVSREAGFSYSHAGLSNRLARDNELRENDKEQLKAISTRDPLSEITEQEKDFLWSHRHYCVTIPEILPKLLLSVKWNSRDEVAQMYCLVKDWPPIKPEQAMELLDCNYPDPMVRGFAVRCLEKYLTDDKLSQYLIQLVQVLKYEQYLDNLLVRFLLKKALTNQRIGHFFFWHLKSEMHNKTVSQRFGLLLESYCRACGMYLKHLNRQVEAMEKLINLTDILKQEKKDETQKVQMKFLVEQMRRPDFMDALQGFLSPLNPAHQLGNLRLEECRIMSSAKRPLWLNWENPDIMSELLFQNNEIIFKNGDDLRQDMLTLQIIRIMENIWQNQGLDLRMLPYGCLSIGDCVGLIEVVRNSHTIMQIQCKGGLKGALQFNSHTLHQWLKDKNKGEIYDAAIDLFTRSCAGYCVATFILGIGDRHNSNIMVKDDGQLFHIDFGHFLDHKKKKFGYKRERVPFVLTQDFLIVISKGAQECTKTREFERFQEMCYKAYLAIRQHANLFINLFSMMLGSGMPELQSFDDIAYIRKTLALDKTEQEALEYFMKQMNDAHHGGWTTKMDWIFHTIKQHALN
T1 sequence (P27986 whole entry partner): as the sequence (P27986 whole entry partner) above

Regarding `COc1ccccc1-n1c(CSc2ncnc3[nH]cnc23)nc2ccccc2c1=O` [Compound D-036, 3-(2-methoxyphenyl)-2-(9H-purin-6-ylsulfanylmethyl)-3H-quinazolin-4-one], the “Alpha/Delta Ratio” value in data set [1] (20 μM ATP) is listed as over 226; in [10] it was 48. In data set [1], the remaining activity at 100 µM amounted to 63%. Further, the EC50 in [2] is 200 nM; in data set [4], 5500 ± 5000 nM; in data set [7] (setting [15]) it was 4100 nM; in data set [9], 900 ± 40 nM. Moreover, the “Gamma/Delta Ratio” value in data set [3] is given as 18. The IC50 came to 72000 nM in data set [3] and 4100 nM in [8]. Further, the “Beta/Delta Ratio” value in data set [5] was determined as 69; in data set [6] it was 36.

Consider `Cc1cccc2nc(CSc3ncnc4[nH]cnc34)n(-c3ccccc3Cl)c(=O)c12` [Compound D-026, 3-(2-Chlorophenyl)-5-methyl-2-(9H-purin-6-ylsulfanylmethyl)-3H-quinazolin-4-one], for which the melting point was 227.8 to 230.1 °C (dec.). In addition, the EC50 in [2] worked out at 300 ± 300 nM. Further, the IC50 in data set [3] turned out to be 13000 ± 10000 nM. For the same molecule, the EC50 in data set [4] was found to be 200 ± 200 nM. The IC50 in data set [11] (setting [16]) was found to be 80 nM. In data set [12] (Homo sapiens, read-out: EC50, suppression of histamine release), the EC50 was about 25 nM. Besides, the “Suppression of histamine release” value in [12] (anti-IgE, at 1,000 nM) was about 100%. Also, in data set [12] (fMLP stimulus), the “Effect on histamine release, basophils stimulated with fMLP” value is listed as “Neither compound elicited any effect”. For the same molecule, the EC50 in [7] (T-cell) is 3500 nM. The molecule further returned an IC50 in data set [13] of 1700 nM. Further, the IC50 in data set [8] was found to be 380 ± 200 nM. For the same molecule, the EC50 in data set [9] stood at 300 ± 100 nM.

Turning to `O=c1c2ccccc2nc(CSc2ncnc3[nH]cnc23)n1Cc1ccccc1` [Compound D-037, 3-benzyl-2-(9H-purin-6-ylsulfanylmethyl)-3H-quinazolin-4-one], the “Alpha/Delta Ratio” value in [1] (20 μM ATP) is given as over 125; in data set [10], 64. Besides, in data set [1], the remaining activity at 100 µM came out at 64%. For the same molecule, the EC50 came out at 2000 nM in [2], 1300 ± 400 nM in data set [4] and 1200 ± 400 nM in [9]. Moreover, in data set [3], the “Gamma/Delta Ratio” value amounted to 13. The IC50 in data set [3] worked out at 45000 nM; in data set [11] (setting [16]), 800 nM; in [5], 80000 nM; in [8], 3500 nM. The results for the “Beta/Delta Ratio” value in [5] and in data set [6] were 100 and 33, respectively.

In the case of `Cc1cccc2nc(Cn3cnc4c(N)ncnc43)n(-c3ccccc3C(C)C)c(=O)c12` [Compound D-029, 2-(6-Aminopurin-9-ylmethyl)-3-(2-isopropylphenyl)-5-methyl-3H-quinazolin-4-one], the melting point lay in the range of 258 to 258.2 °C. In [1] (20 μM ATP), the “Alpha/Delta Ratio” value came to 882. The IC50 in data set [1] (20 μM ATP, read-out: Alpha IC50) was determined as 49000 nM. Moreover, the EC50 in data set [2] came out at 300 nM. In data set [3], the “Gamma/Delta Ratio” value came to 37 and the IC50 is 13000 ± 700 nM. The molecule also came in with an EC50 in [4] of 500 ± 600 nM. Further, the IC50 in [11] (setting [16]) turned out to be 60 nM. Further, in data set [5], the “Beta/Delta Ratio” value was 54 and the IC50 came out at 3000 nM. In addition, in data set [6], the “Beta/Delta Ratio” value was found to be 101 and the IC50 worked out at 34000 ± 4000 nM. Further, the EC50 in data set [7] (setting [15]) came out at 3400 ± 2000 nM. In addition, in data set [8], the IC50 came to 340 ± 80 nM. Also, in data set [9], the EC50 amounted to 100 ± 30 nM. Besides, the “Alpha/Delta Ratio” value in data set [10] worked out at 653.

On to `COC[C@H]1OC(=O)c2coc3c2[C@@]1(C)C1=C(C3=O)[C@@H]2CCC(=O)[C@@]2(C)C[C@H]1OC(C)=O` [Wortmannin, wortmannin], for which, in data set [14], the “Pit depths (osteoclast activity), Table 1” value was 5.7 ± 0.6 and 5 ± 0.5.

`O=c1cc(N2CCOCC2)oc2c(-c3ccccc3)cccc12` [LY294002, reference compound]: the IC50 in data set [11] (setting [16]) is 230 nM; in data set [11] (Example 2 assay conditions, read-out: IC50, δ isoform of PI3K (FIG. 1)) it was 300 to 1000 nM; in data set [8], 2100 ± 1500 nM. For the same molecule, the inhibition at 10 µM in data set [12] (Homo sapiens, at the highest concentration, 10,000 nM) was about 100%. Also, in [14], the “Pit depths (osteoclast activity), Table 1” value was 4.6 ± 0.22 and 5.8 ± 0.5. Moreover, in data set [9], the EC50 came to 900 ± 500 nM.
